Results published in ChEMBL document CHEMBL1153593, “Recent developments in the design and synthesis of hybrid molecules based on aminoquinoline ring and their antiplasmodial evaluation” (Eur J Med Chem, 2009).
Values after ≈ are worked out from the molar mass of the structure shown.

Columns and labels:
[1] = test system: Plasmodium falciparum; assay: microbe, parasite or virus in culture; settings: D10
[2] = molecular target: Plasmepsin II (Plasmodium falciparum, UniProt P46925); assay: Inhibition of Plasmodium falciparum plasmepsin-2
[3] = test system: Plasmodium falciparum; assay: Antimalarial activity against chloroquine-resistant Plasmodium falciparum W2; format: functional, organism-based
[4] = test system: Plasmodium falciparum; assay: Antimalarial activity against chloroquine-resistant Plasmodium falciparum TM91C235; format: functional, organism-based
[5] = test system: Plasmodium falciparum; assay: Antimalarial activity against chloroquine-sensitive Plasmodium falciparum D6; format: functional, organism-based
[6] = test system: Plasmodium falciparum; assay: Antimalarial activity against chloroquine-resistant Plasmodium falciparum Dd2; format: functional, organism-based
[7] = test system: Plasmodium falciparum; assay: Antimalarial activity against Plasmodium falciparum 3D7; format: functional, organism-based
[8] = test system: Plasmodium falciparum; assay: Antimalarial activity against Plasmodium falciparum FcB1/Columbia erythrocytes […]; format: functional, organism-based
[9] = Selectivity index, ratio of CD50 for human MRC5 cells to IC50 for Plasmodium falciparum FcB1/Columbia erythrocytes; format: functional
[10] = Cytotoxicity against human MRC5 cells; format: cell-based; settings: read-out: CD50 (the source's name)
[11] = test system: Plasmodium falciparum; assay: Antimalarial activity against Plasmodium falciparum THAI; format: functional, organism-based
[12] = test system: Plasmodium falciparum; assay: Antimalarial activity against chloroquine-resistant Plasmodium falciparum FcB1; format: functional, organism-based
[13] = test system: Plasmodium falciparum; assay: Antimalarial activity against chloroquine-resistant Plasmodium falciparum K1; format: functional, organism-based
[14] = test system: Plasmodium falciparum; assay: Antimalarial activity against chloroquine-resistant Plasmodium falciparum W2 at 9 uM; format: functional
[15] = test system: Plasmodium falciparum; assay: Antimalarial activity against chloroquine-sensitive Plasmodium falciparum D10 at 9 uM; format: functional
[16] = test system: Plasmodium falciparum; assay: Antimalarial activity as relative mean survival time against Plasmodium falciparum at 40 mg/kg for 4 days; format: functional; settings: 96 h
[17] = test system: Plasmodium falciparum; assay: Antimalarial activity against Plasmodium falciparum FcB1R; settings: read-out: ED50 (the source's name)
[18] = test system: Plasmodium falciparum; assay: Antimalarial activity against Plasmodium falciparum NF54; settings: NF-54
[19] = test system: Plasmodium yoelii; assay: Antimalarial activity as reduced parasitaemia at day 4 against Plasmodium yoelii N67 infected Swiss mice (Mus musculus) compared to chloroquine; format: functional, N-67; parameters: scale not given: the % may be the effect or the level left
[20] = organism: Homo sapiens; assay: (§1) Terminal half life in human; format: ADME, organism-based; settings: in vivo
[21] = test system: Plasmodium yoelii; assay: Antimalarial activity as mean survival time against Plasmodium yoelii N67 infected Swiss mice (Mus musculus); format: functional, N-67
[22] = test system: Plasmodium berghei; assay: Gametocytocidal activity as oocysts per mosquito against Plasmodium berghei; format: functional
[23] = as §1; format: ADME, organism-based; settings: in vivo, read-out: beta t1/2 (converted)
[24] = test system: Plasmodium berghei; assay: Gametocytocidal activity as infected mosquitoes against Plasmodium berghei at 10 uM/kg; format: functional

Plasmepsin II, sequence (P46925 whole entry): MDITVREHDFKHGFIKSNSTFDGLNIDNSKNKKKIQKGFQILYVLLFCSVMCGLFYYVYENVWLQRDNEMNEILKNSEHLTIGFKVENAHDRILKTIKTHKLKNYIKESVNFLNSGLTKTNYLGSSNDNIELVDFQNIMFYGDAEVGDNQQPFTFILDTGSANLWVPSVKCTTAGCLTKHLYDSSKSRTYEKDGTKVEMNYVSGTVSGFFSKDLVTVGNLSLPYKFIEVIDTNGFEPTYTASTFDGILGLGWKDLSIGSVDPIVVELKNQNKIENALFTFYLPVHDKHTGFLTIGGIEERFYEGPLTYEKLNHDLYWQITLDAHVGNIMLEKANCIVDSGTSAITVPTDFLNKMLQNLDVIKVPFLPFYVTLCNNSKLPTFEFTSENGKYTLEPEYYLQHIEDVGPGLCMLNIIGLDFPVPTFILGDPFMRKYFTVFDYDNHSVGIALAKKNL

CCCCNC(=O)C[C@H](O)[C@H](CC(C)C)NC(=O)[C@@H](NC(=O)Cc1ccc2cc(C(=O)OCCCC(=O)N[C@H](C(=O)N[C@H](CCCCN)C(=O)NCCCC(C)Nc3cc(OC)cc4cccnc34)C(C)C)ccc2c1)[C@H](C)CC (stereo partly specified)
IC50 [1]: 3300 nM | IC50 [2]: 9600 nM | IC50 [3]: 1000 nM

CC(C)(C)NCc1c(Nc2ccnc3ccc(Cl)cc23)cc(O)cc1-c1ccc(Cl)cc1
IC50 [4]: 0.3 ng/mL (≈ 0.643 nM) | IC50 [5]: 0.3 ng/mL (≈ 0.643 nM)

Clc1ccc2c(NCCCN(CCc3ccccc3)Cc3ncc[nH]3)ccnc2c1
IC50 [6]: 150 nM | IC50 [7]: 50 nM | IC50 [3]: 130 nM

CCCCCCCNCCCN1CCN(CCCNc2ccnc3cc(Cl)ccc23)CC1
IC50 [8]: 9.5 nM | Selectivity Index [9]: <326 | CC50 [10]: < 3100 nM

O=C(CN1CCCCC1)Nc1cc(CN2CCOCC2)cc(Nc2ccnc3ccc(Cl)cc23)c1
IC50 [11]: 12.8 nM | IC50 [12]: 9.6 nM | IC50 [13]: 12.4 nM

CCCCN(CCCNc1ccnc2cc(Cl)ccc12)Cc1ccoc1
IC50 [6]: 45 nM | IC50 [7]: 50 nM | IC50 [3]: 70 nM

COc1ccc(CNCc2cc(NC(=O)CN3CCCCC3)cc(Nc3ccnc4ccc(Cl)cc34)c2)cc1
IC50 [12]: 4.4 nM

O=C(CN1CCCCC1)Nc1cc(CN2CCN(c3ccccc3)CC2)cc(Nc2ccnc3ccc(Cl)cc23)c1
IC50 [12]: 5.5 nM

CCCCNC(=O)C[C@H](O)[C@H](CC(C)C)NC(=O)[C@@H](NC(=O)CCC(=O)N[C@H](C(=O)N[C@H](CCCCN)C(=O)NCCCC(C)Nc1cc(OC)cc2cccnc12)C(C)C)[C@H](C)CC (stereo partly specified)
Activity [14]: 40% | IC50 [2]: 396000 nM | Activity [15]: 20%

O=C(CN1CCCCC1)Nc1cc(COC(=O)CCCCCC2=CC(=O)c3ccccc3C2=O)cc(Nc2ccnc3ccc(Cl)cc23)c1
survival at 40 mg/kg [16]: 178% | EC50 [17]: 23 nM

CCCCN(CCCNc1ccnc2cc(Cl)ccc12)Cc1ccsc1
IC50 [6]: 45 nM | IC50 [7]: 50 nM | IC50 [3]: 50 nM

CCCCN(CCCNc1ccnc2cc(Cl)ccc12)Cc1cc(Br)ccc1O
IC50 [6]: 45 nM | IC50 [7]: 45 nM | IC50 [3]: 45 nM

O=C(CN1CCCCC1)Nc1cc(CN2CCCCC2)cc(Nc2ccnc3ccc(Cl)cc23)c1
IC50 [11]: 6.7 nM | IC50 [12]: 10 nM | IC50 [13]: 8.1 nM

CCN(CC)CCCC(C)Nc1ccnc2cc(Cl)ccc12 (stereo unspecified) [CHLOROQUINE]
IC50 [18]: 106 nM | MIC [18]: 0.39 µM (≈ 0.125 µg/mL) | Activity [19]: 99.9% | beta t1/2 [20]: 1 months | Survival [21]: 20 days

COc1cc(NC(C)CCCN)c2ncccc2c1 (stereo unspecified) [PRIMAQUINE]
Activity [22]: 2.6 | half-life [23]: 14 days | Activity [24]: 28%
